{
  "source": "paper PMC7262662",
  "about": "(BioMed Research International, 2020)",
  "key": {"FIPV": {"tested_on": "FIPV", "assay": "Antiviral assay in cotreatment: viral RNA quantification by qPCR", "format": "cell-based, feline infectious peritonitis virus", "settings": "for % log10 copy number decrement: compared to FIPV sample; for 3′UTR log10 copy number: cotreatment", "description": "CrFK cells at a density of 1 × 10^5 were cultured in medium in 24-well plates for 24 h at 37°C. […] The culture supernatant was centrifuged at 700 g for 10 min, and the virus-containing supernatant was collected and used for virus quantification.\nViral RNA was extracted from the collected supernatant using a Viral Nucleic Acid Extraction Kit II (Geneaid, New Taipei City, Taiwan) following the protocol provided by the manufacturer. Cellular total RNA was extracted from the CrFK cell pellet using the RNeasy® Mini Kit, which includes DNase treatment (QIAGEN, Germantown, MD, USA). The concentration and purity of the extracted RNA were quantified using the Eppendorf BioSpectrometer® kinetic (Eppendorf, Hamburg, Germany). The extracted RNA was stored at -80°C until further use.\nComplementary DNA (cDNA) was prepared, and viral mRNA was quantified using quantitative PCR (qPCR) employing previously described methods. The qPCR results were quantified using the absolute quantification approach, where a standard curve of a serial dilution of viral cDNA template was plotted before the quantification."}, "different cells": {"tested_on": "different cells", "design": "method as in PMID 23658730, doi:10.4236/aim.2016.64027, PMID 20603153", "settings": "ref [19], [60], [61]; cited from earlier work"}, "CrFK cells [1]": {"tested_on": "CrFK cells", "assay": "Cellular uptake study by fluorescence microscopy", "format": "cell-based, feline", "settings": "20 μM, examined at 1, 3 and 6 h", "description": "The cellular uptake of curcumin and the Cur-CS nanoparticles by CrFK cells was examined using the fluorescence method. […] The plates were incubated at 37°C in an incubator with 5% CO2 for 24 h. […] At these intervals, the cells were rinsed three times with PBS. […] The dried coverslips were mounted on a glass slide, and images were captured by an Olympus IX81 inverted fluorescence microscope (Olympus, Japan) under a 535–600 nm filter."}, "CrFK cells [2]": {"tested_on": "CrFK cells", "assay": "Cytotoxicity assay (MTT)", "format": "cell-based, feline", "settings": "CrFK cells; MTT; tested 1 to 250 μg/mL", "description": "(§1) CrFK cells at a density of 2 × 10^4 were incubated in 96-well culture plates for 24 h at 37°C. Then, the cells were washed with PBS. […] A colorimetric MTT assay was performed. Briefly, 20 μL 5 mg/mL MTT solution was added to each well and incubated for 2 h at 37°C. Then, 170 μL solution was removed from each well; subsequently, 100 μL DMSO was added to dissolve the formazan crystals. The plate was then incubated for 1 h before optical density (OD) measurement at 570 nm using a plate reader (BioTek EL800, BioTek, Winooski, VT, USA).\n(§2) The relative cell viability (%) of CrFK cells after treatment was calculated using the formula (OD570 (treated cells)/OD570 (control cells)) × 100. The median cytotoxic concentration (CC50) is the concentration that reduces the absorbance of treated cells to 50% with respect to the cell controls. The CC50 of the compounds was calculated by regression analysis in SPSS software version 22.0 (IBM, Chicago, IL, USA)."}, "Cytotoxicity assay (MTT)": {"assay": "Cytotoxicity assay (MTT)", "format": "cell-based, feline", "settings": "cat", "description": "as §1, §2"}, "FIPV strain WSU 79-1146": {"tested_on": "FIPV strain WSU 79-1146", "assay": "Cytopathic effect inhibition assay (time of addition, MTT)", "format": "cell-based, feline infectious peritonitis virus", "description": "The cytopathic effect (CPE) inhibition assay with slight modifications was used as previously described. […] In pretreatment, the compounds were included in the cell culture medium for 8 h and were removed prior to virus infection. In cotreatment, the compounds were mixed with virus in the medium, added simultaneously to the cells, and left on the cells throughout. For posttreatment, the compounds were added to the cells 2 h postinfection (hpi) and remained throughout the time of infection. […] After incubation at 37°C for 48 and 72 h, the cell viability was determined by MTT.\nThe percentage of protection was calculated based on the OD using the following formula: (3) Percentage of protection %=OD570 T−OD570 V/OD570 C−OD570 V×100, where T is the treated sample, V is the virus-infected control, and C is the negative control.\nThe median effective concentration (EC50) is the concentration of compound required to achieve 50% protection against virus-induced CPE."}},
  "note": "Marks after values point to notes of the source that are not given here.",
  "data": [
    {"smiles": "COc1cc(/C=C/C(=O)CC(=O)/C=C/c2ccc(O)c(OC)c2)ccc1O", "note": "[Curcumin]", "values": [
      {"measurement": "% log10 copy number decrement", "setting": "FIPV; 48 h, 5 μM", "result": "27.54 ± 3.28^b %"},
      {"measurement": "3′UTR log10 copy number", "setting": "FIPV; 48 h, 5 μM, FIPV sample 11.86 ± 0.06", "result": "11.72 ± 0.06^d"},
      {"measurement": "% log10 copy number decrement", "setting": "FIPV; 48 h, 10 μM", "result": "40.50 ± 5.41^c %"},
      {"measurement": "3′UTR log10 copy number", "setting": "FIPV; 48 h, 10 μM, FIPV sample 11.86 ± 0.06", "result": "11.63 ± 0.01^cd"},
      {"measurement": "% log10 copy number decrement", "setting": "FIPV; 48 h, 20 μM", "result": "59.46 ± 2.45^e %"},
      {"measurement": "% log10 copy number decrement", "setting": "FIPV; 48 h, 20 μM, listed as curcumin", "result": "59.46 ± 2.45", "unit": "%"},
      {"measurement": "3′UTR log10 copy number", "setting": "FIPV; 48 h, 20 μM, FIPV sample 11.86 ± 0.06", "result": "11.46 ± 0.05^b"},
      {"measurement": "% log10 copy number decrement", "setting": "FIPV; 72 h, 5 μM", "result": "10.70 ± 5.47^b %"},
      {"measurement": "3′UTR log10 copy number", "setting": "FIPV; 72 h, 5 μM, FIPV sample 12.00 ± 0.03", "result": "11.95 ± 0.01^cd"},
      {"measurement": "% log10 copy number decrement", "setting": "FIPV; 72 h, 10 μM", "result": "26.92 ± 5.93^cd %"},
      {"measurement": "3′UTR log10 copy number", "setting": "FIPV; 72 h, 10 μM, FIPV sample 12.00 ± 0.03", "result": "11.86 ± 0.06^abc"},
      {"measurement": "% log10 copy number decrement", "setting": "FIPV; 72 h, 20 μM", "result": "26.38 ± 2.75^c %"},
      {"measurement": "3′UTR log10 copy number", "setting": "FIPV; 72 h, 20 μM, FIPV sample 12.00 ± 0.03", "result": "11.87 ± 0.04^abc"},
      {"measurement": "Exposure up to which no cytotoxic effect was observed", "setting": "different cells", "result": 30, "unit": "µM"},
      {"measurement": "Cellular uptake: time at which green fluorescence was first observed", "setting": "CrFK cells [1]", "result": 3, "unit": "h"},
      {"measurement": "Concentration tolerated by the cells without cytotoxic effect", "setting": "CrFK cells [2]", "result": 15000, "unit": "ng/mL"},
      {"measurement": "CC50 at 24 h", "setting": "Cytotoxicity assay (MTT)", "result": 69.9, "unit": "µM"},
      {"measurement": "CC50 at 48 h", "setting": "Cytotoxicity assay (MTT)", "result": 59.1, "unit": "µM"},
      {"measurement": "CC50 at 72 h", "setting": "Cytotoxicity assay (MTT)", "result": 35.5, "unit": "µM"},
      {"measurement": "SI", "setting": "FIPV strain WSU 79-1146; 48 h, CC50/EC50", "result": 3.72},
      {"measurement": "EC50", "setting": "FIPV strain WSU 79-1146; Alphacoronavirus 1, 48 h, 50% protection against virus-induced CPE, 100 TCID50 FIPV in CrFK cells", "result": 15.9, "unit": "µM"},
      {"measurement": "Percentage of protection", "setting": "FIPV strain WSU 79-1146; cotreatment, 48 h, 5 μM", "result": "21.98 ± 7.01^b %"},
      {"measurement": "Percentage of protection", "setting": "FIPV strain WSU 79-1146; cotreatment, 48 h, 10 μM", "result": "40.08 ± 3.71^d %"},
      {"measurement": "Percentage of protection", "setting": "FIPV strain WSU 79-1146; cotreatment, 48 h, 20 μM", "result": "55.95 ± 1.82^e %"},
      {"measurement": "Percentage of protection", "setting": "FIPV strain WSU 79-1146; cotreatment, 48 h, 20 μM, listed as curcumin", "result": 56, "unit": "%"},
      {"measurement": "Percentage of protection", "setting": "FIPV strain WSU 79-1146; cotreatment, 72 h, 5 μM", "result": "11.99 ± 3.43^b %"},
      {"measurement": "Percentage of protection", "setting": "FIPV strain WSU 79-1146; cotreatment, 72 h, 10 μM", "result": "18.82 ± 1.93^c %"},
      {"measurement": "Percentage of protection", "setting": "FIPV strain WSU 79-1146; cotreatment, 72 h, 20 μM", "result": "22.25 ± 2.05^c %"},
      {"measurement": "Percentage of protection", "setting": "FIPV strain WSU 79-1146; posttreatment, 48 h, 5 μM", "result": "0.08 ± 0.13^a %"},
      {"measurement": "Percentage of protection", "setting": "FIPV strain WSU 79-1146; posttreatment, 48 h, 10 μM", "result": "13.31 ± 3.93^b %"},
      {"measurement": "Percentage of protection", "setting": "FIPV strain WSU 79-1146; posttreatment, 48 h, 20 μM", "result": "17.28 ± 0.78^bc %"},
      {"measurement": "Percentage of protection", "setting": "FIPV strain WSU 79-1146; posttreatment, 72 h, 5 μM", "result": "0.99 ± 1.71^a %"},
      {"measurement": "Percentage of protection", "setting": "FIPV strain WSU 79-1146; posttreatment, 72 h, 10 μM", "result": "2.59 ± 1.55^a %"},
      {"measurement": "Percentage of protection", "setting": "FIPV strain WSU 79-1146; posttreatment, 72 h, 20 μM", "result": "2.13 ± 1.91^a %"},
      {"measurement": "Percentage of protection", "setting": "FIPV strain WSU 79-1146; pretreatment, 48 h, 5 μM", "result": "0.38 ± 0.66^a %"},
      {"measurement": "Percentage of protection", "setting": "FIPV strain WSU 79-1146; pretreatment, 48 h, 10 μM", "result": "3.87 ± 1.64^ab %"},
      {"measurement": "Percentage of protection", "setting": "FIPV strain WSU 79-1146; pretreatment, 48 h, 20 μM", "result": "12.79 ± 2.27^c %"},
      {"measurement": "Percentage of protection", "setting": "FIPV strain WSU 79-1146; pretreatment, 72 h, 5 μM", "result": "1.74 ± 1.06^ab %"},
      {"measurement": "Percentage of protection", "setting": "FIPV strain WSU 79-1146; pretreatment, 72 h, 10 μM", "result": "1.16 ± 1.82^a %"},
      {"measurement": "Percentage of protection", "setting": "FIPV strain WSU 79-1146; pretreatment, 72 h, 20 μM", "result": "5.12 ± 2.03^bc %"}
    ]}
  ]
}
